# Test results: ChEMBL document CHEMBL4422610, “HDAC as onco target: Reviewing the synthetic approaches with SAR study of their inhibitors” (Eur J Med Chem, 2018)
# Legend:
# Histone deacetylase 1 [1] = target: T1, Histone deacetylase 1 (Homo sapiens, UniProt Q13547); assay: Inhibition of recombinant human GST-tagged HDAC1 expressed in baculovirus infected Sf9 insect cells Fluor-de-lys as substrate measured after 2 hrs by fluorescence assay
# [2] = target: T2, Protein deacetylase HDAC6 (Homo sapiens, UniProt Q9UBN7); assay: Inhibition of HDAC6 (unknown origin)
# T2 sequence (Q9UBN7 whole entry): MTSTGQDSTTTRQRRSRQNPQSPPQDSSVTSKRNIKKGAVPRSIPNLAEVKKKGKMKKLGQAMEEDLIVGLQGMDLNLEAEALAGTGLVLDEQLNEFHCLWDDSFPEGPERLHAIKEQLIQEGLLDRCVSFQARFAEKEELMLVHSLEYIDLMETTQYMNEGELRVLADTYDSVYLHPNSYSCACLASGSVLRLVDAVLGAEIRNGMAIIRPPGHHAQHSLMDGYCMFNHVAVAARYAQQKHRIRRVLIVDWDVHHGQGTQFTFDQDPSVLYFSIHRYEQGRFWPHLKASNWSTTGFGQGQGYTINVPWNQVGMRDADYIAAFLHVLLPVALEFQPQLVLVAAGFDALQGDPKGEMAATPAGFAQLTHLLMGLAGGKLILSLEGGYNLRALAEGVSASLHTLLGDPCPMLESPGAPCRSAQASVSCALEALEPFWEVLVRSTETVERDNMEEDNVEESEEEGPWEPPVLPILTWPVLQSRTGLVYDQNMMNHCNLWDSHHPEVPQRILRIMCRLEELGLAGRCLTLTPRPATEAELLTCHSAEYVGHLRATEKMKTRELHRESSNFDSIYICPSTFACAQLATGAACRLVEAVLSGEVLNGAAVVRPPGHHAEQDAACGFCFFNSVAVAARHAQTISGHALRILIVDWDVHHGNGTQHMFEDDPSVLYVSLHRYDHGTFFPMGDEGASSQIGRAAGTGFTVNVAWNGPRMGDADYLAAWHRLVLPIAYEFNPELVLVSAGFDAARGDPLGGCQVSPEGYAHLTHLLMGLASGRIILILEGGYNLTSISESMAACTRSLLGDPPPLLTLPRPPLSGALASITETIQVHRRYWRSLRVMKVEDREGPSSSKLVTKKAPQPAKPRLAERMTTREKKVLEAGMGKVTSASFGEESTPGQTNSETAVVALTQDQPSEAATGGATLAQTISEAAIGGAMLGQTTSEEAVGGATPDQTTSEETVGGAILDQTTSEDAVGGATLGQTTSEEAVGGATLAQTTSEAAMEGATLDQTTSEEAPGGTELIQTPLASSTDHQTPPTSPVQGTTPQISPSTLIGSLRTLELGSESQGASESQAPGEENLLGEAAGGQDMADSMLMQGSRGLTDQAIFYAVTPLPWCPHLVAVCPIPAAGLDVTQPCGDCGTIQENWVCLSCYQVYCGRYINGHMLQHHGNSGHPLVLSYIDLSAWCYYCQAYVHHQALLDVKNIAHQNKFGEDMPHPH
# Histone deacetylase 1 [3] = target: T1, Histone deacetylase 1; assay: Inhibition of HDAC1 (unknown origin)
# Histone deacetylase 4 [4] = target: T3, Histone deacetylase 4 (Homo sapiens, UniProt P56524); assay: Inhibition of HDAC4 (unknown origin)
# [5] = target: Histone deacetylase (HDAC1 and HDAC2) (Homo sapiens, UniProt Q13547+Q92769); format: cell-based; conditions: hela
# Histone deacetylase 3 = Histone deacetylase 3 (Homo sapiens, UniProt O15379); assay: Inhibition of HDAC3 (unknown origin)
# Histone deacetylase = format: cell-based, Homo sapiens; conditions: hela
# [6] = target: Histone deacetylase (Homo sapiens) (UniProt Q13547+O15379+Q9UBN7+Q92769+Q9UQL6+Q8WUI4+Q9BY41+Q96DB2+P56524+Q9UKV0+Q969S8); assay: Inhibition of HDAC in human K562 cells assessed as increase in histone acetylation levels at 500 nM after 3 hrs by FACS analysis relative to SAHA; format: cell-based
# HCT-116 = assay: cells; format: functional, cell-based; conditions: Homo sapiens, HCT-116, 72 h
# A549 = assay: cells; format: functional, cell-based; conditions: Homo sapiens, A549, 72 h
# K562 = assay: cells; format: functional, cell-based; conditions: Homo sapiens, K562, 72 h
# Histone deacetylase 1 [7] = target: T1, Histone deacetylase 1; assay: Inhibition of recombinant human His-tagged HDAC1 (482 residues) expressed in baculovirus infected insect cells using Boc Lys(Ac)-AMC as substrate preincubated for 5 mins followed by substrate addition and measured after 30 mins by fluorescence assay
# [8] = target: T2, Protein deacetylase HDAC6; assay: Inhibition of recombinant human His-tagged HDAC6 expressed in baculovirus infected insect cells using Boc Lys(Ac)-AMC as substrate preincubated for 5 mins followed by substrate addition and measured after 30 mins by fluorescence assay
# [9] = target: T4, Protein deacetylase HDAC6 (Mus musculus, UniProt Q9Z2V5); assay: Inhibition of recombinant mouse HDAC6 expressed in HEK293T cells using Ac-KGLGK(Ac)-MCA as substrate measured after 30 mins by fluorescence assay
# T4 sequence (Q9Z2V5 whole entry): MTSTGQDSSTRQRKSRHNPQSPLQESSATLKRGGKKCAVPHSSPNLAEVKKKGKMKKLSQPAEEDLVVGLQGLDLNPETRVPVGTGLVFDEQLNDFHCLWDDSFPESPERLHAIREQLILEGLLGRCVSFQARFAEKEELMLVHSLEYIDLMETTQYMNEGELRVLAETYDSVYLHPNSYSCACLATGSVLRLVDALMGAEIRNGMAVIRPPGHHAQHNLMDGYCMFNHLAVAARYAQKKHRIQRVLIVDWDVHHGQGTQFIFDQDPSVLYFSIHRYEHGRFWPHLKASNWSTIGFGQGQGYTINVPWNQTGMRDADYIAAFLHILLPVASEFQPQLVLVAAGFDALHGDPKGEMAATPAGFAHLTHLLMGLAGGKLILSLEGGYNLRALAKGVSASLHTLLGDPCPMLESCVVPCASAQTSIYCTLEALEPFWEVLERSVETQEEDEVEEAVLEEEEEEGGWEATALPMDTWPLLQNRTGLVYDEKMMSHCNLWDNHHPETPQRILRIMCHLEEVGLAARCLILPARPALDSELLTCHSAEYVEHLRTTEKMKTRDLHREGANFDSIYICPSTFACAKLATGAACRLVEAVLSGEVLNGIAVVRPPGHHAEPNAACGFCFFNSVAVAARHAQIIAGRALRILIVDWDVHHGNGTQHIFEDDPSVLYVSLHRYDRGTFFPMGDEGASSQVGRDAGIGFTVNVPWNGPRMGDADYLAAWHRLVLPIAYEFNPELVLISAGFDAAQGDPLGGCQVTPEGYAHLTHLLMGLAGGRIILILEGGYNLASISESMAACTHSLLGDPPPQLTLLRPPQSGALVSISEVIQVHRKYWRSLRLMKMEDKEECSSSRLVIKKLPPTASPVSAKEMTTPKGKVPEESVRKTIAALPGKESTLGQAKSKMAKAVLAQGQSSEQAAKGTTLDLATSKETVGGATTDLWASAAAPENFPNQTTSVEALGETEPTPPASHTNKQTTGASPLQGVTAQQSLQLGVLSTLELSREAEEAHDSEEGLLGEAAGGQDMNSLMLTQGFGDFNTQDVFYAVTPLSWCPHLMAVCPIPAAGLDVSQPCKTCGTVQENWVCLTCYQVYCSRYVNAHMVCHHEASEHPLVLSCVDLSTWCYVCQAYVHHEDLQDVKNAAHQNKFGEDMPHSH
# Histone deacetylase 1 [10] = target: T1, Histone deacetylase 1; assay: Inhibition of recombinant human HDAC1 expressed in HEK293T cells using Ac-KGLGK(Ac)-MCA as substrate measured after 30 mins by fluorescence assay
# Histone deacetylase 4 [11] = target: T3, Histone deacetylase 4; assay: Inhibition of recombinant human HDAC4 expressed in HEK293T cells using Ac-KGLGK(Ac)-MCA as substrate measured after 30 mins by fluorescence assay
# T1 sequence (Q13547 whole entry): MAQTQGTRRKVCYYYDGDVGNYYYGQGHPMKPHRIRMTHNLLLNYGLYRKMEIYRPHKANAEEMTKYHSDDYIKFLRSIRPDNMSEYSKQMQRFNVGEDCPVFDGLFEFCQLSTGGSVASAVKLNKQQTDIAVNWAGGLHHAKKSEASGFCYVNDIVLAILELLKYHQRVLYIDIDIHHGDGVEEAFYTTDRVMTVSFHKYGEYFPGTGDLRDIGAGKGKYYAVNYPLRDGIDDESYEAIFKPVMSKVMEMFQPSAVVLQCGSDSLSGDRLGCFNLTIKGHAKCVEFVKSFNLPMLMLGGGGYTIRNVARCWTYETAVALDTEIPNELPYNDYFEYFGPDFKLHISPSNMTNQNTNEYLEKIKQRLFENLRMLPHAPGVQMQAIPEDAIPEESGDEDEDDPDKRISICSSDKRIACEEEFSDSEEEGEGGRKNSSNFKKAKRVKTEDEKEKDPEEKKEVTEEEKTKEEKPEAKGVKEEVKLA
# Chain of Histone deacetylase 3 (O15379 whole entry): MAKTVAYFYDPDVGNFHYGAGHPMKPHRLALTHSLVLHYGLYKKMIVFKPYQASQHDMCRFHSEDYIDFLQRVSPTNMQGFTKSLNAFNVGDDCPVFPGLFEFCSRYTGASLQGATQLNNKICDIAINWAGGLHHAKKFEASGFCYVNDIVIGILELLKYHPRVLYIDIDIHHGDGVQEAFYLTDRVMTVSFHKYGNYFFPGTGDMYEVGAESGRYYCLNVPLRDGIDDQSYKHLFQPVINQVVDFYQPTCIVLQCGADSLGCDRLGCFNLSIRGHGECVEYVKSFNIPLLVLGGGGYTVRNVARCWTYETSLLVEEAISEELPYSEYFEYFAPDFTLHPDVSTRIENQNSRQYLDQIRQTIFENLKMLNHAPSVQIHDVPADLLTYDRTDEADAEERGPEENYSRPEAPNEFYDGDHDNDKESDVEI
# T3 sequence (P56524 whole entry): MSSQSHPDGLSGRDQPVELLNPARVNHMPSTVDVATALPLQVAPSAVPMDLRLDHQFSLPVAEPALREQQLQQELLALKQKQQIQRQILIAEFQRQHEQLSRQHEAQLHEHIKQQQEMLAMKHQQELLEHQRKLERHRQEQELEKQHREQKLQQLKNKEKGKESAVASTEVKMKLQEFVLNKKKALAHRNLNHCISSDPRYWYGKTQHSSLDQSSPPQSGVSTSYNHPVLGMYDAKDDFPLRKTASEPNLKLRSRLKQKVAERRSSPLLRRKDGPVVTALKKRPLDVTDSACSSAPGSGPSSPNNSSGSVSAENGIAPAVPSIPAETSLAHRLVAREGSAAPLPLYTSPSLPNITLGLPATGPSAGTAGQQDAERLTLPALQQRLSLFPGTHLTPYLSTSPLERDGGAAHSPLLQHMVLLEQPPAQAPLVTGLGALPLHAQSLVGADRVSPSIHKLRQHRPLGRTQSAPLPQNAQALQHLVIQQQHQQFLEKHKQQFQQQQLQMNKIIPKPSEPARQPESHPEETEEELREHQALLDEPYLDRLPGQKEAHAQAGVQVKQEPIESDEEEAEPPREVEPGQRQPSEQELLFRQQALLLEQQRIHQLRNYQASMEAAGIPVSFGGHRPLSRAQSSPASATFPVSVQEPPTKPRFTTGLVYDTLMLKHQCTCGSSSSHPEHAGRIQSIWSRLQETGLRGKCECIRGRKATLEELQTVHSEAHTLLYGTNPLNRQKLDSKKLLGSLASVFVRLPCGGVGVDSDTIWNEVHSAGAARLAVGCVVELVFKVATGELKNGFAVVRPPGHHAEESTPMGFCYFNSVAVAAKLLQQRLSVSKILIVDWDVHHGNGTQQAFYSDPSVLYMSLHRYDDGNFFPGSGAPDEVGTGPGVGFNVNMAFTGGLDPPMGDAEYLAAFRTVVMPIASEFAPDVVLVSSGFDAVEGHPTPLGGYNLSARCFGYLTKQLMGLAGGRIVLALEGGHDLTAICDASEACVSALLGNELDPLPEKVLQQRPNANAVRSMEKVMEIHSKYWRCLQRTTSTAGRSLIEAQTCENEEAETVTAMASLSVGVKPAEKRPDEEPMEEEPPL
smiles,measurement,setting,value
CN(Cc1c(C(C)(C)C)nc2cc(/C=C/C(=O)NO)ccn12)CC(C)(C)C,IC50,Histone deacetylase 1 [1],780 nM
COCCOCC(=O)SCCCCCC(NC(=O)OCc1ccccc1)C(=O)Nc1cccc2cccnc12 (stereo not drawn),IC50,[2],29 nM
same,IC50,Histone deacetylase 1 [3],19 nM
same,IC50,Histone deacetylase 4 [4],18 nM
COc1cc(/C=C/C(=O)NO)ccc1OCCCNC(=O)c1ccccc1O,IC50,[5],370 nM
same,IC50,Histone deacetylase 3,680 nM
same,IC50,[2],550 nM
CCCCNCc1c(CCCC)nc2cc(/C=C/C(=O)NO)ccn12,IC50,Histone deacetylase 1 [1],20 nM
CCCN(Cc1ccc(C(=O)NO)cc1)C(=O)c1cc2c([nH]c3ccccc32)c(-c2ccc(OC)cc2)n1,IC50,Histone deacetylase,260 nM
COc1ccc(-c2nc(C(=O)N(CCN(C)C)Cc3ccc(C(=O)NO)cc3)cc3c2[nH]c2ccccc23)cc1,IC50,Histone deacetylase,92 nM
CC(=O)SCCCCCC(NC(=O)OCc1ccccc1)C(=O)Nc1cccc2cccnc12 (stereo not drawn),IC50,[2],34 nM
same,IC50,Histone deacetylase 1 [3],47 nM
same,IC50,Histone deacetylase 4 [4],18 nM
O=C(CCCCCCn1cc(-c2ccc(Oc3ccccc3)cc2)nn1)NO,histone acetylation relative to SAHA,[6],53%
same,IC50,HCT-116,3550 nM
same,IC50,A549,4340 nM
same,IC50,K562,3300 nM
COc1ccc(-c2cn(CCCCCCC(=O)NO)nn2)cc1,histone acetylation relative to SAHA,[6],85%
same,IC50,HCT-116,1780 nM
same,IC50,A549,2840 nM
same,IC50,K562,1530 nM
CC(C)CCc1c(OCCCOc2cccc(/C=C/C(=O)NO)c2)ccc2c1OC(=O)CC2,IC50,Histone deacetylase 1 [7],64.7 nM
same,IC50,[8],12.1 nM
O=C(CCCCC[C@@H]1NC(=O)[C@H]2CCCN2C(=O)[C@@H]2CCCCCCCCCCC[C@@H](NC1=O)C(=O)N2)NO,IC50,[9],280 nM
CC(C)CCc1c(OCCOc2ccc(/C=C/C(=O)NO)cc2)ccc2c1OC(=O)CC2,IC50,Histone deacetylase 1 [7],83.2 nM
same,IC50,[8],55.6 nM
CCCCc1nc2cc(/C=C/C(=O)NO)ccn2c1CN(CC)CCCC,IC50,Histone deacetylase 1 [1],60 nM
COc1ccc2c(c1)[nH]c1c(C)nccc12 [HARMINE],IC50,Histone deacetylase,> 10000 nM
O=C(NC(CCCCCSSCCCCCC(NC(=O)OCc1ccccc1)C(=O)Nc1cccc2cccnc12)C(=O)Nc1cccc2cccnc12)OCc1ccccc1 (stereo not drawn),IC50,[2],7.5 nM
same,IC50,Histone deacetylase 1 [3],8.2 nM
same,IC50,Histone deacetylase 4 [4],3.4 nM
COc1cc(/C=C/C(=O)NO)ccc1OCCCN(C)C(=O)c1ccccc1O,IC50,[5],180 nM
same,IC50,Histone deacetylase 3,290 nM
same,IC50,[2],350 nM
CC(C)CCc1c(OCCOc2cccc(/C=C/C(=O)NO)c2)ccc2c1OC(=O)CC2,IC50,Histone deacetylase 1 [7],66.8 nM
same,IC50,[8],6.31 nM
CCC(CC)CN(CC)Cc1c(C)nc2cc(/C=C/C(=O)NO)ccn12,IC50,Histone deacetylase 1 [1],10 nM
COc1cc(/C=C/C(=O)NO)ccc1OCCCCNC(=O)c1ccccc1O,IC50,[5],220 nM
same,IC50,Histone deacetylase 3,410 nM
same,IC50,[2],360 nM
COc1cc(/C=C/C(=O)NO)ccc1OCCN(C)C(=O)c1ccccc1O,IC50,[5],240 nM
same,IC50,Histone deacetylase 3,380 nM
same,IC50,[2],430 nM
COCC(=O)CCCCC[C@@H]1NC(=O)[C@H]2CCCN2C(=O)[C@@H]2CCCCCCCCCCC[C@@H](NC1=O)C(=O)N2,IC50,Histone deacetylase 1 [10],27 nM
same,IC50,Histone deacetylase 4 [11],26 nM
same,IC50,[9],> 100000 nM
O=C(CCCCCn1cc(-c2ccccc2)nn1)NO,histone acetylation relative to SAHA,[6],48%
same,IC50,HCT-116,9370 nM
same,IC50,A549,12500 nM
same,IC50,K562,8350 nM
O=C(CCCCCCn1cc(-c2ccccc2)nn1)NO,histone acetylation relative to SAHA,[6],108%
same,IC50,HCT-116,1390 nM
same,IC50,A549,1980 nM
same,IC50,K562,1210 nM
CC(C)CCc1c(OCCCCOc2ccc(/C=C/C(=O)NO)cc2)ccc2c1OC(=O)CC2,IC50,Histone deacetylase 1 [7],204 nM
same,IC50,[8],82.6 nM
CCN(CC)CCN(Cc1ccc(C(=O)NO)cc1)C(=O)c1cc2c([nH]c3ccccc32)c(-c2ccc(OC)cc2)n1,IC50,Histone deacetylase,120 nM
O=C1N[C@@H]2CCCCCCCCCCC[C@H](NC2=O)C(=O)N2CCC[C@@H]2C(=O)N[C@H]1CCCCCB(O)O,IC50,Histone deacetylase 1 [10],12000 nM
same,IC50,Histone deacetylase 4 [11],9400 nM
same,IC50,[9],> 100000 nM
O=C(NC(CCCCCSSCCO)C(=O)Nc1cccc2cccnc12)OCc1ccccc1 (stereo not drawn),IC50,[2],3.2 nM
same,IC50,Histone deacetylase 1 [3],4.9 nM
same,IC50,Histone deacetylase 4 [4],2 nM
